In assay [1] the test system is S. epidermidis ATCC 12228. The experiment in a line: Broth microdilution MIC/MBC. The assay is classed as cell-based, Staphylococcus epidermidis. An excerpt: (§1) Staphylococcus aureus CCUG 35601 (MRSA, Culture Collection, University of Gothenburg) and Staphylococcus aureus ATCC 29213 (MSSA, ATCC, Manassas, VA). Staphylococcus epidermidis ATCC 12228 (ATCC, Manassas, VA), RP62A, N15 and 10 clinical isolates of Staphylococcus epidermidis that have previously been characterized. Isolated Escherichia coli, Enterococcus faecium (including VRE), Pseudomonas aeruginosa, Klebsiella pneumoniae, Enterobacter spp and Acinetobacter baumannii were obtained from Orebro University hospital. Isolated Streptococcus mutans, Streptococcus constellatus and Streptococcus anginosus were obtained from Malmo University. The bacteria were grown on Luria-Bertani (LB) agar plates, supplemented with 5% defibrinated horse blood, and incubated at 37° C. overnight. Single colonies were inoculated into 5 ml of LB broth and incubated on a shaker (300 rpm) at 37° C. overnight. The bacterial concentration was determined by viable count and adjusted to correlate with approximately 10^9 CFU/ml.
(§2) The broth microdilution method was used to determine minimal inhibitory concentration (MIC) and minimal bactericidal concentration (MBC). Two-fold serial dilutions of the peptides were used and the final concentrations ranged from 0.097-50 μM. […] The effect of bacteriocin-antibiotic combinations was accomplished by using the same concentration series of antibiotics with a constant concentration of PLNC8 αβ (3.1 μM) in all the wells. […] All experiments were repeated at least three times.
Background: Broth dilution looks for growth in wells or tubes with falling amounts of substance.

Assay [2] can be described thus: Fluorescence leakage assay (CF release from liposomes). Conditions: for lysis of liposomes: after 2 min, both the L-form and D-form; for disruption of liposome membranes (CF release): peptide alone. On the procedure: Liposomes were prepared by dry film formation, hydration and finally extrusion through a polycarbonate membrane to form monodisperse large unilamellar vesicles. […] A dry lipid film was formed by evaporation of the chloroform by nitrogen flow and overnight lyophilization. The film was hydrated with either 10 mM phosphate buffer (PB) pH 7 or 10 mM phosphate buffer saline (PBS) pH 7, and the solution was vortexed for 1 min and put on a shaker for 1 h before extruded 21 times through a 100 nm pore-sized polycarbonate membrane. For fluorescence leakage assay the lipid film was hydrated with buffer (PBS) containing self-quenching concentration (50 mM) of 5(6)-carboxyfluorescein (CF) (Sigma Aldrich) and liposomes were prepared as described above. Removal of unencapsulated CF was done by gel filtration using a PD-25 column (GE Healthcare, Uppsala, Sweden) and liposomes with encapsulated CF were eluted with PBS. Leakage of the liposome encapsulated fluorophore CF due to additions of the bacteriocins was recorded using a fluorescence plate reader (Infinite 200, Tecan, Austria) where λex=485 nm and λem=520 nm. CF was encapsulated at self-quenching concentration, and CF release results in an increased fluorescence signal. […] In order to estimate the maximum release from each sample a final addition of 0.5% Triton X-100 was made at the end of all measurements and the total amount of CF (100% release) was estimated after 15 min incubation. The CF release is presented as percentage release for each time interval (measurements taken every minute). The percentage CF release is calculated as 100×(F−F0)/(FT−F0) where F0 is the initial fluorescence intensity of CF before peptide addition, F is the fluorescence intensity of CF at time point t and FT is the maximum fluorescence after the addition of Triton X-100.

Assay [3] relates to S. epidermidis RP62A biofilms. The assay can be described thus: Bacterial biofilm disruption. The assay is classed as cell-based, Staphylococcus epidermidis. The settings on record: 1 h. On the procedure:
S. epidermidis RP62A was inoculated into 5 ml of LB broth and incubated on a shaker at 37° C. overnight. The bacterial culture was diluted 1:100 into fresh media and 100 μl of bacterial suspension per well was added in a 96-well microtiter plate and incubated statically at 37° C. for 20 h. The wells were washed three times by submerging the plate into a container with distilled water to remove unattached cells. Fresh LB media was added to each well (100 μl) followed by addition of the peptides in different concentrations. The plate was incubated statically for 1 h. Detached material in the wells were transferred to a new microtiter plate for absorbance measurements at 620 nm. The remaining attached biofilms were stained with 0.1% crystal violet for 15 min before the plate was washed four times in distilled water as mentioned above and allowed to dry at room temperature for 2 h. The crystal violet was solubilized in 30% acetic acid for 15 min and the absorbance quantified at 550 nm. Each experiment, with three replicates, was repeated three times.

Assay [4] deals with S. aureus CCUG 35601 (MRSA). The experiment in a line: Broth microdilution MIC/MBC. The class given is cell-based, Staphylococcus aureus.
Source text: as §1, §2

Assay [5] relates to S. epidermidis 126 (hGISE strain). The assay can be described thus: Broth microdilution MIC/MBC. The assay is classed as cell-based, Staphylococcus epidermidis.
Source text: as §1, §2

The subject of assay [6] is S. epidermidis 154. The experiment in a line: Broth microdilution MIC/MBC. The class given is cell-based, Staphylococcus epidermidis.
Source text: as §1, §2

Assay [7] relates to S. epidermidis 157 (hGISE strain). The experiment in a line: Broth microdilution MIC/MBC. The class given is cell-based, Staphylococcus epidermidis.
Source text: as §1, §2

Assay [8] deals with Enterococcus faecium. The experiment in a line: Broth microdilution MIC/MBC. The class given is cell-based. The settings on record: antibiotic alone, unit inferred; for MIC: unit assumed.
Source text: as §1, §2

Assay [9] has as its system Escherichia coli. The experiment in a line: Broth microdilution MIC/MBC. The class given is cell-based. Conditions: antibiotic alone, unit not given; for MBC: in µg/mL.
Source text: as §1, §2

Assay [10] has as its system S. epidermidis. The assay can be described thus: Broth microdilution MIC/MBC, strain not named. The class given is cell-based, Staphylococcus epidermidis. Conditions: Table 8, antibiotic alone.
Source text: as §1, §2

The mark [11] stands for this setting: Table 3, MRSA, antibiotic alone.
The mark [12] stands for this setting: Vancomycin resistant E. faecium (VRE).
Where [13] appears, read: ESBL-producing E. coli, first isolate.
The mark [14] stands for this setting: ESBL-producing E. coli, second isolate.
[15] abbreviates: Non-ESBL E. coli, first isolate.
Where [16] appears, read: Non-ESBL E. coli, second isolate.
[17] abbreviates: Staphylococcus epidermidis, 154.
Where [18] appears, read: Staphylococcus epidermidis, ATCC12228.

On to “H-DLTTKLWSSWGYYLGKKARWNLKHPYVQF-OH [PLNC8 α]”, for which the “enhancement of the inhibitory effects of β1-20 and β7-20” value in assay [1] (co-incubation with α-peptide) was “not further enhanced”. Moreover, the “inhibitory and bactericidal effects on S. epidermidis” value in [1] (α-peptide in combination with the β-peptide) was “inhibited”. Besides, in [2], the lysis of liposomes result was “not” and the “disruption of liposome membranes (CF release)” value is given as “disrupted the membrane of the liposomes”. Moreover, the disruption of biofilms entry in [3] is “disruptive effects on the biofilms”.

Teicoplanin: the MBC in assay [4] (setting [11]) is 3.1 µg/mL; in assay [5] (Table 3, antibiotic alone), 6.25 µg/mL; in assay [6] (Table 3, antibiotic alone) it was 1.5 µg/mL; in assay [7] (Table 3, antibiotic alone) it was 25 µg/mL; in [1] (Table 2, antibiotic alone), 1.5 µg/mL; in assay [8] (E. faecium, first isolate) it was above 50 µg/mL. The MBC in assay [8] (E. faecium, second isolate) is 25 µg/mL; in [8] (setting [12]), 50 µg/mL; in assay [9] (setting [13]), above 50; in assay [9] (setting [14]), above 50; in assay [9] (setting [15]), above 50; in assay [9] (setting [16]), above 50. In [10], the MBC was 1.5 µg/mL. For the same molecule, the MIC was 0.78 µg/mL in assay [4] (setting [11]); 3.1 µg/mL in assay [5] (Table 3, antibiotic alone); 1.5 µg/mL in [6] (Table 3, antibiotic alone); 12.5 µg/mL in [7] (Table 3, antibiotic alone); 1.5 µg/mL in [1] (Table 2, antibiotic alone); above 50 µg/mL in assay [8] (E. faecium, first isolate). For the same molecule, the MIC in assay [8] (E. faecium, second isolate) is 0.39 µg/mL; in assay [8] (setting [12]) it was 0.39 µg/mL; in assay [9] (setting [13]), above 50; in assay [9] (setting [14]) it was above 50; in assay [9] (setting [15]) it was above 50; in assay [9] (setting [16]), above 50. In addition, the MIC in assay [10] is 1.5 µg/mL.

As for “H-SVPTSVYTLGIKILWSAYKHRKTIEKSFNKGFYH-OH [PLNC8 β]”, the “growth inhibition of S. epidermidis” value in assay [1] (single full-length or truncated peptide) is listed as “inhibited”. For the same molecule, in assay [2], the lysis of liposomes result was “complete lysis of liposomes after 2 min” and the “disruption of liposome membranes (CF release)” value is given as “Disruption of the liposome membranes”. Moreover, in [3], the disruption of biofilms entry is “disruptive effects on the biofilms”.

On to `CN[C@H](CC(C)C)C(=O)N[C@H]1C(=O)N[C@@H](CC(N)=O)C(=O)N[C@H]2C(=O)N[C@H]3C(=O)N[C@H](C(=O)N[C@H](C(=O)O)c4cc(O)cc(O)c4-c4cc3ccc4O)[C@H](O)c3ccc(c(Cl)c3)Oc3cc2cc(c3O[C@@H]2O[C@H](CO)[C@@H](O)[C@H](O)[C@H]2O[C@H]2C[C@](C)(N)[C@H](O)[C@H](C)O2)Oc2ccc(cc2Cl)[C@H]1O` [Vancomycin], for which the MBC in [4] (Staphylococcus aureus) was 3.1 µg/mL; in [5] (Staphylococcus epidermidis) it was 3.1 µg/mL; in assay [6] (setting [17]), 3.1 µg/mL; in [7] (Staphylococcus epidermidis) it was 6.25 µg/mL; in [1] (setting [18]), 3.1 µg/mL. In addition, the MIC in [4] (Staphylococcus aureus) came out at 1.5 µg/mL; in [5] (Staphylococcus epidermidis), 3.1 µg/mL; in assay [6] (setting [17]) it was 1.5 µg/mL; in assay [7] (Staphylococcus epidermidis) it was 6.25 µg/mL; in [1] (setting [18]) it was 1.5 µg/mL.
